Assay results taken from patent US20140343165A1, “PLANT PROTECTION AGENT” (priority 2010, published 2014).

Assays:
[1] = test system: Erwinia amylovora; assay: Growth inhibition in in vitro suspension cultures (OD600 growth curves); format: cell-based; conditions: for Effect on growth of suspension culture: Example 2
Procedure: Streptomycin as a conventional agent against Erwinia amylovora was used as a positive control (see FIGS. 1A to 1D).
The specific members of the three different classes of quinones were uniformly pre-dissolved in ethanol to give a 1 mM solution and subsequently diluted to the respective final concentrations in culture medium. Corresponding controls were conducted with equal volumes of ethanol in the absence of agent (FIG. 4, “KE”). Attention was particularly focused on a low concentration rage of less than 100 μM, in which unspecific and weak antibacterial effects are no longer of significance.
In the present experiments, the Austrian Erwinia amylovora standard strain 295/93 (AGES) was employed.
(§1) Erwinia amylovora was inoculated into 5 ml of KB medium and cultivated over night at 28° C. and 200 rpm. This culture was diluted with KB medium to OD600=0.3 and 2 ml thereof were further cultivated in sealed cuvettes in the presence of different agent concentrations immediately afterwards. […] Two controls were conducted: unchanged medium and medium with an ethanol concentration equal to that of the test preparations. The optical densities of the cultures OD600 were measured over time at predetermined intervals.

[2] = test system: Erwinia amylovora; assay: Bacteriostatic versus bactericidal effect: plating aliquots of suspension cultures onto agent-free solid medium; format: cell-based; conditions: for Colony formation of surviving cells after plating: already after 30 min
Procedure: This may be determined by means of plating aliquots of the suspension cultures containing the agent onto agent-free solid media. […] A culture blended with a corresponding volume of the solvent for juglone (ethanol) served as a control. […]. […] Aliquots of the suspension culture having an equivalent ethanol concentration were withdrawn and plated to serve as a control. After two days of incubating the plates at 25° C., the respective colony formation was documented.

[3] = test system: Erwinia carotovora; assay: Growth inhibition in suspension culture; format: cell-based
Procedure: Various other species of Erwinia are also important phytopathogens. The bacterium Erwinia carotovora was selected as an example of a further Erwinia species.
as §1

[4] = test system: Erwinia amylovora; assay: In vitro infection tests on apple blossoms; conditions: for Infested blossoms: 14 blossoms
Procedure: In these tests, streptomycin was used as a positive control.
The in vitro tests on apple blossoms represented the natural course of infection and were conducted as follows: blooming apple blossoms were cut and further cultivated standing in a sterile sugar solution in transparent plastic containers. […] Following another 35 hours of incubation, the blossoms were wet by spraying on water. The infection rate was determined after 8 to 10 days of incubation at 22° C. and 70% relative humidity.

[5] = test system: Erwinia amylovora; assay: Inoculation tests on pear fruits; format: in vivo
Text: As opposed to the blossom system, this test has to be performed with lesions of the plant tissue. It is known that any results obtained with this system have a lower reproducibility and are harder to evaluate. The corresponding results are photographically documented in FIG. 3. Two different pear varieties were used.
The development of black necrotic lesions of the plant tissue and the formation of white bacterial slime (exsudate) were taken as criteria for evaluating the degree of infection.
Erwinia amylovora was inoculated into 5 ml KB medium and cultivated over night at 28° C. and 200 rpm. Upon reaching a cell density corresponding to OD600 (1:10 dilution)=0.17 to 0.20, 1 ml of the undiluted culture was centrifuged and the bacterial pellet was resuspended in PBS (phosphate buffered saline). Unripe pear fruits (July) obtained from the experimental plantation (Jedlersdorf, BOKU) were harvested, washed with water, dried and used for inoculation (EPPO protocol 2004). In the inoculation procedure, two holes each having a volume of about 10 μl were pierced into each fruit using a pipette tip. 10 μl of the test solution were pipetted into each of the hollows thus formed, followed by incubation of the fruits for 15 min. Upon absorption of the test solutions by the tissue, each lesion was inoculated with 10 μl of Erwinia amylovora, suspended in PBS. The direct inoculation of fruits that had not been treated with the agent before served as a positive control. In the negative control, sterile water was used instead of the agent solution. A 0.01 mM streptomycin solution was used as a positive control. The inoculated fruits were incubated for 3 to 7 days at 25° C. and 100% relative humidity.

[6] = test system: apple blossoms (Smoothy and Idared); assay: Phytotoxicity on apple blossoms and subsequent fruit development; format: in vivo, Malus x domestica; conditions: for Browning reaction on petals: Smoothy and Idared; for Fruit russeting: all tested concentrations
Procedure: (§2) . In this test, the respective concentrations were employed that had been proven as completely effective (no bacterial growth) in the in vitro suspension cultures. […]. […] The maximum final concentrations of the solvent ethanol in the treatment solutions were 5%; corresponding control treatments were conducted with 0.5 or 5% ethanol in water. For each variant (agent, concentration, variety), two of the larger branches were treated. The test were conducted in the experimental fruit plantation of the University of Agriculture in Jedlersdorf, Austria. The trees of each series were of identical age as well as developmental and observable physiological state. The treatments were conducted in the morning between 8:00 and 9:30 at a relative humidity of 68 to 75% and temperatures of 12 to 13° C. On all days of treatment, the sprayed blossoms were directly exposed to sunlight afterwards. Phytotoxic effects were evaluated on the days following treatment. During the following months, fruit set and development was observed and compared to that of the control plants. In the evaluation, attention was particularly focused on visible alterations of the fruit epidermis.

[7] = test system: pear blossoms (Williams Christ); assay: Phytotoxicity on pear blossoms and subsequent fruit development; format: in vivo, Pyrus communis; conditions: for Browning reaction on petals: Williams Christ; for Fruit russeting: all tested concentrations
Procedure: as §2

[8] = test system: bees; conditions: on contact or by ingestion
[9] = concentration not given, curative

With O=C1C=CC(=O)c2c(O)cccc21 [Juglone] the “Effect on growth of suspension culture” value ([1]; 5 μM) was “growth occurs after a prolonged incubation period”, the “Effect on growth of suspension culture” value ([1]; 10 μM (1.74 mg/1)) was “completely bactericidal effect” and the “Effect on growth of suspension culture” value ([1]; 50 μM, 5% ethanol in medium) was “distinct effect”. The “Concentrations proven completely effective (no bacterial growth) in the in vitro suspension cultures” value ([1]; suspension culture) was 0.005 to 0.05 mM, the “Activity against Erwinia amylovora (growth inhibition)” value ([1]; suspension culture, compared with streptomycin) was “activity corresponding to that of streptomycin in a sub-millimolar concentration range” and the “Colony formation of surviving cells after plating” value ([2]; 0.01 mM in suspension culture) was “no colony formation of surviving cells after each prolonged incubation time”. The “Colony formation of surviving cells after plating” value ([2]; 0.1 mM in suspension culture) was “no colony formation of surviving cells after each prolonged incubation time”, the Bactericidal effect ([2]; conclusion of plating tests) was “strong bactericidal effect” and the “Growth in suspension culture” value ([3]; 0.1 mM) was “completely inhibited”. The “Growth in suspension culture” value ([3]; concentrations lower than 0.1 mM) was “not by lower concentrations”, the “Degree of efficacy (%)” value ([4]; 0.005 mM, curative) was 58% and the “Infestation (%)” value ([4]; 0.005 mM, curative) was 36%. For the same molecule, the Infested blossoms ([4]; 0.005 mM, curative) was 5, the “Degree of efficacy (%)” value ([4]; 0.01 mM, curative) was 67% and the “Infestation (%)” value ([4]; 0.01 mM, curative) was 29%. For the same molecule, the Infested blossoms ([4]; 0.01 mM, curative) was 4, the “Effect on infection of pear fruits” value ([5]; 0.1 mM, pre-incubation 15 min before inoculation) was “effect approximately comparable to that of 0.01 mM streptomycin” and the “Browning reaction on petals” value ([6]; 0.025 mM) was “slightly brown spots”. For the same molecule, the “Browning reaction on petals” value ([6]; 0.05 mM) was “more distinct spots”, the Fruit russeting [6] was “Neither the juglone nor the plumbagin treatments resulted in observable fruit russeting” and the “Browning reaction on petals” value ([7]; tested 0.005/0.01 mM) was “No effect”. For the same molecule, the Fruit russeting [7] was “Neither the juglone nor the plumbagin treatments resulted in observable fruit russeting” and the Toxicity to bees [8] was “non-toxic to bees on contact or by ingestion”.
In the case of O=C1C=CC(=O)C=C1 [Benzoquinone, 1,4-benzoquinone], the phyotoxic ([4]; 0.01 mM, apple blossoms) is reported as “no”, the “Degree of efficacy (%)” value ([4]; 0.01 mM, curative) is reported as 33% and the “Infestation (%)” value ([4]; 0.01 mM, curative) is reported as 57%. The Infested blossoms ([4]; 0.01 mM, curative) was 8, the phyotoxic ([4]; 0.05 mM, apple blossoms) was “yes” and the “Degree of efficacy (%)” value ([4]; 0.05 mM, curative) was 42%. For the same molecule, the “Infestation (%)” value ([4]; 0.05 mM, curative) was 50% and the Infested blossoms ([4]; 0.05 mM, curative) was 7.
With [H]/N=C(/N)N[C@H]1[C@H](O)[C@@H](O)[C@H](O[C@@H]2O[C@@H](C)[C@](O)(C=O)[C@H]2O[C@@H]2O[C@@H](CO)[C@H](O)[C@@H](O)[C@@H]2NC)[C@@H](N/C(N)=N\[H])[C@@H]1O [Streptomycin, streptomycin] the Infested blossoms ([4]; concentration not given, agent applied 2.5 h after Erwinia amylovora (curative)) was 3, the “Degree of efficacy (%)” value [4, 9] was 75% and the “Infestation (%)” value [4, 9] was 21%. The phyotoxic ([4]; in vivo) was “no”, the Exsudate formation ([5]; 0.01 mM) was “no exsudate formation” and the Necrotic lesions ([5]; 0.01 mM, Williams Christ and Bosc's Bottle Pear, versus inoculation without agent) was “slightly diminished”.
CC1=CC(=O)c2c(O)cccc2C1=O [Plumbagin, 5-hydroxy-2-methyl-1,4-naphthoquinone] was tested, and the “Concentrations proven completely effective (no bacterial growth) in the in vitro suspension cultures” value ([1]; suspension culture) was 0.1 to 0.5 mM, the “Degree of efficacy (%)” value ([4]; 0.1 mM, curative) was 58% and the “Infestation (%)” value ([4]; 0.1 mM, curative) was 36%. The Infested blossoms ([4]; 0.1 mM, curative) was 5, the “Degree of efficacy (%)” value ([4]; 0.5 mM, curative) was 50% and the “Infestation (%)” value ([4]; 0.5 mM, curative) was 43%. The Infested blossoms ([4]; 0.5 mM, curative) was 6, the “Browning reaction on petals” value ([6]; 0.1 mM) was “brown spots” and the “Browning reaction on petals” value ([6]; 0.5 mM, compared with 0.1 mM) was “more distinct”. For the same molecule, the Fruit russeting [6] was “Neither the juglone nor the plumbagin treatments resulted in observable fruit russeting”, the “Browning reaction on petals” value ([7]; 0.1 mM) was “brown spots” and the “Browning reaction on petals” value ([7]; 0.5 mM, compared with 0.1 mM) was “more distinct”. For the same molecule, the Fruit russeting [7] was “Neither the juglone nor the plumbagin treatments resulted in observable fruit russeting”.
